# Laboratory results reported in patent US20250304620A1, “ANTIMICROBIAL PEPTIDE AND APPLICATION THEREOF” (priority 2023, published 2025).
# Marks after values point to notes of the source that are not given here. Non-standard residues stand in square brackets, D forms with d. Residues, ends and D or L forms follow the SMILES beside them. d2Nal = N[C@H](Cc1ccc2ccccc2c1)C(=O)O; dNle = CCCC[C@@H](N)C(=O)O; dNva = CCC[C@@H](N)C(=O)O
# How the values were obtained:
# [1] = tested on: Pseudomonas aeruginosa ATCC 27853; assay: Injectable formulations on mice infected with peritonitis; assay type: in vivo, ICR mice; details: twice a day for 3 days; for Number of mice that died on each day after infection: day 1 / Number of mice that died on each day after infection: day 2 / Number of mice that died on each day after infection: day 3 / Number of mice that died on each day after infection: day 4 / Number of mice that died on each day after infection: day 5 / Average survival times (Days): n = 10; for Average survival times (Days): observed for 14 d
# Summary of the method: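 Survival readout: deaths and survival time tracked for 14 d. Treatment was tail-vein injection by body weight, twice a day for 3 consecutive days, starting right after intraperitoneal challenge with 0.2 mL of 1×10^9 CFU/mL P. aeruginosa ATCC 27853 in male and female ICR mice.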
# rabbit red blood cells = assay type: cell-based; details: red cells of rabbit, 1 h
# [2] = tested on: carbapenem-resistant Klebsiella pneumoniae (CRKP); assay type: cell-based; details: carbapenem-resistant (CRKP)
# Summary of the method: (§1)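 Broth serial twofold dilution per CLSI standards, run 5 times in parallel, gave MIC values for the peptides against clinically common resistant strains.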
# [3] = tested on: carbapenem-resistant Pseudomonas aeruginosa (CRPA); assay type: cell-based; details: carbapenem-resistant (CRPA)
# Summary of the method: as §1
# [4] = tested on: Methicillin-resistant Staphylococcus aureus (MRSA); assay type: cell-based; details: Methicillin-resistant
# Summary of the method: as §1
# [5] = tested on: carbapenem-resistant Escherichia coli (CREC); assay type: cell-based; details: carbapenem-resistant (CREC)
# Summary of the method: as §1
# [6] = tested on: vancomycin-resistant Enterococcus (VRE); assay type: cell-based
# Summary of the method: as §1
# Candida krusei ATCC 6258 = assay type: cell-based
# Summary of the method: (§2)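 CLSI microdilution, serial 2-fold dilutions; MIC read-out; n = 5 parallel repeats.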
# [7] = tested on: Klebsiella pneumoniae ATCC 700603; assay type: cell-based
# Summary of the method: as §2
# [8] = tested on: Candida albicans ATCC MYA-2876; assay type: cell-based
# Summary of the method: as §2
# [9] = tested on: Staphylococcus aureus ATCC 25923; assay type: cell-based
# Summary of the method: as §2
# [10] = tested on: Serratia marcescens ATCC 29021; assay type: cell-based
# Summary of the method: as §2
# [11] = tested on: Candida glabrata ATCC 15126; assay type: cell-based
# Summary of the method: as §2
# [12] = tested on: Corynebacterium ATCC 7715; assay type: cell-based
# Summary of the method: as §2
# [13] = tested on: Pseudomonas aeruginosa ATCC 27853; assay type: cell-based
# Summary of the method: as §2
# [14] = tested on: Bacillus subtilis ATCC 6633; assay type: cell-based
# Summary of the method: as §2
# [15] = tested on: Salmonella typhimurium ATCC 14028; assay type: cell-based
# Summary of the method: as §2
# Candida utilis ATCC 9950 = assay type: cell-based
# Summary of the method: as §2
# [16] = Serum stability assay (residual level by RP-HPLC); details: human
# [17] = tested on: Shigella flexneri ATCC 12022; assay: MIC against clinically common bacterial strain; assay type: cell-based
# Summary of the method: as §2
structure (smiles),measurement,setting,value
CCCC[C@@H](NC(=O)[C@@H](CCCCN)NC(=O)[C@@H](CCCNC(=N)N)NC(C)=O)C(=O)N[C@H](CCCC)C(=O)N[C@H](Cc1ccc2ccccc2c1)C(=O)N[C@H](CCCNC(=N)N)C(=O)N[C@H](CCCC)C(=O)N[C@H](CCCCN)C(=O)N[C@H](Cc1ccc2ccccc2c1)C(=O)N[C@H](CCCNC(=N)N)C(=O)N[C@H](CCCCN)C(N)=O [LV-12] (Ac-[dR][dK][dNle][dNle][d2Nal][dR][dNle][dK][d2Nal][dR][dK]-NH2),Number of mice that died on each day after infection: day 1,[1]; 0.2 mg/kg via tail vein,2 Mouse
same,Number of mice that died on each day after infection: day 2,[1]; 0.2 mg/kg via tail vein,1 Mouse
same,Number of mice that died on each day after infection: day 3,[1]; 0.2 mg/kg via tail vein,0 Mouse
same,Number of mice that died on each day after infection: day 4,[1]; 0.2 mg/kg via tail vein,2 Mouse
same,Number of mice that died on each day after infection: day 5,[1]; 0.2 mg/kg via tail vein,1 Mouse
same,Average survival times (Days),[1]; 0.2 mg/kg via tail vein,7.3** Days
same,Number of mice that died on each day after infection: day 1,[1]; 1 mg/kg via tail vein,0 Mouse
same,Number of mice that died on each day after infection: day 2,[1]; 1 mg/kg via tail vein,0 Mouse
same,Number of mice that died on each day after infection: day 3,[1]; 1 mg/kg via tail vein,2 Mouse
same,Number of mice that died on each day after infection: day 4,[1]; 1 mg/kg via tail vein,0 Mouse
same,Number of mice that died on each day after infection: day 5,[1]; 1 mg/kg via tail vein,1 Mouse
same,Average survival times (Days),[1]; 1 mg/kg via tail vein,10.9**** Days
same,Number of mice that died on each day after infection: day 1,[1]; 5 mg/kg via tail vein,0 Mouse
same,Number of mice that died on each day after infection: day 2,[1]; 5 mg/kg via tail vein,1 Mouse
same,Number of mice that died on each day after infection: day 3,[1]; 5 mg/kg via tail vein,2 Mouse
same,Number of mice that died on each day after infection: day 4,[1]; 5 mg/kg via tail vein,0 Mouse
same,Number of mice that died on each day after infection: day 5,[1]; 5 mg/kg via tail vein,1 Mouse
same,Average survival times (Days),[1]; 5 mg/kg via tail vein,9.7*** Days
same,survival time of mice infected with Pseudomonas aeruginosa,"[1]; tail vein, observed 14 d",superior to those of the Levofloxacin group
same,"MHC (minimum hemolytic concentration, lowest concentration causing 10% hemolysis)",rabbit red blood cells,>1000 µg/mL
same,MIC CRKP,[2],4 µg/mL
same,MIC CRPA,[3],2 µg/mL
same,MIC MRSA,[4],8 µg/mL
same,MIC CREC,[5],8 µg/mL
same,MIC VRE,[6],4 µg/mL
same,MIC Candida krusei ATCC 6258,Candida krusei ATCC 6258,4 µg/mL
same,MIC Klebsiella pneumoniae ATCC 700603,[7],2 µg/mL
same,MIC Candida albicans ATCC MYA-2876,[8],8 µg/mL
same,MIC Staphylococcus aureus ATCC 25923,[9],1 µg/mL
same,MIC Serratia marcescens ATCC 29021,[10],2 µg/mL
same,MIC Candida glabrata ATCC 15126,[11],4 µg/mL
same,MIC Corynebacterium ATCC 7715,[12],2 µg/mL
same,MIC Pseudomonas aeruginosa ATCC 27853,[13],1 µg/mL
same,MIC Bacillus subtilis ATCC 6633,[14],8 µg/mL
same,MIC Salmonella typhimurium ATCC 14028,[15],4 µg/mL
same,MIC Candida utilis ATCC 9950,Candida utilis ATCC 9950,16 µg/mL
same,"remaining at 12 h, 0.91 mg/mL",[16],97.5%
same,MIC Shigella flexneri ATCC 12022,[17],4 µg/mL
CCC[C@@H](NC(=O)[C@@H](CCCCN)NC(=O)[C@@H](CCCNC(=N)N)NC(C)=O)C(=O)N[C@H](CCC)C(=O)N[C@H](Cc1ccc2ccccc2c1)C(=O)N[C@H](CCCNC(=N)N)C(=O)N[C@H](CCC)C(=O)N[C@H](CCCCN)C(=O)N[C@H](Cc1ccc2ccccc2c1)C(=O)N[C@H](CCCNC(=N)N)C(=O)N[C@H](CCCCN)C(N)=O [LV-13] (Ac-[dR][dK][dNva][dNva][d2Nal][dR][dNva][dK][d2Nal][dR][dK]-NH2),Number of mice that died on each day after infection: day 1,[1]; 1 mg/kg via tail vein,3 Mouse
same,Number of mice that died on each day after infection: day 2,[1]; 1 mg/kg via tail vein,1 Mouse
same,Number of mice that died on each day after infection: day 3,[1]; 1 mg/kg via tail vein,0 Mouse
same,Number of mice that died on each day after infection: day 4,[1]; 1 mg/kg via tail vein,1 Mouse
same,Number of mice that died on each day after infection: day 5,[1]; 1 mg/kg via tail vein,0 Mouse
same,Average survival times (Days),[1]; 1 mg/kg via tail vein,7.9** Days
same,"MHC (minimum hemolytic concentration, lowest concentration causing 10% hemolysis)",rabbit red blood cells,>1000 µg/mL
same,MIC CRKP,[2],2 µg/mL
same,MIC CRPA,[3],2 µg/mL
same,MIC MRSA,[4],2 µg/mL
same,MIC CREC,[5],4 µg/mL
same,MIC VRE,[6],4 µg/mL
same,MIC Candida krusei ATCC 6258,Candida krusei ATCC 6258,4 µg/mL
same,MIC Klebsiella pneumoniae ATCC 700603,[7],4 µg/mL
same,MIC Candida albicans ATCC MYA-2876,[8],16 µg/mL
same,MIC Staphylococcus aureus ATCC 25923,[9],2 µg/mL
same,MIC Serratia marcescens ATCC 29021,[10],4 µg/mL
same,MIC Candida glabrata ATCC 15126,[11],8 µg/mL
same,MIC Corynebacterium ATCC 7715,[12],4 µg/mL
same,MIC Pseudomonas aeruginosa ATCC 27853,[13],4 µg/mL
same,MIC Bacillus subtilis ATCC 6633,[14],4 µg/mL
same,MIC Salmonella typhimurium ATCC 14028,[15],2 µg/mL
same,MIC Candida utilis ATCC 9950,Candida utilis ATCC 9950,8 µg/mL
same,"remaining at 12 h, 0.91 mg/mL",[16],98.5%
same,MIC Shigella flexneri ATCC 12022,[17],8 µg/mL
